Experimental data taken from paper PMC10873978, “Novel tetrahydroisoquinolines as DHFR and CDK2 inhibitors: synthesis, characterization, anticancer activity and antioxidant properties” (BMC Chemistry, 2024).
“Also recorded” adds a separate entry of the source.

Experiments:
[1] = tested on: MCF7 cell line; experiment: In vitro cytotoxic activity, MTT method, MCF7; format: cell-based, human; details: for IC50: Homo sapiens, MCF7, MCF7 cell line, MTT
Method: (§1) Cell lines: The in vitro human breast cancerous cell line (MCF7), lung cancerous cell lines (A549) and normal cell lines were purchased from Serum and Vaccine formulation in Cairo-Egypt.
(§2) In vitro cytotoxic activity of all synthesized compounds against two human breast cell line (MCF7) and lung cell lines (A549) was evaluated according to the MTT method. Firstly, Growth the cell line medium in 96 well tissue culture plate was injected with 10^5 cells/mL (100 uL/plate well) of the cell line and incubated at 37 °C for 24 h to develop a monolayer sheet then the formed growth medium was poured from 96 well microtiter plates after the confluent sheet of cells. […] Secondly, add 0.1 mL of each concentration tetrahydroisoquinoline sample to each plate. The plates were incubated at 37 °C. Thirdly MTT solution (5 mg/mL in PBS) is prepared. Add 20 µL of MTT solution to each well plates. And shaking in 150 rpm for 5 min, to mix the MTT into the media. Then incubate at (37 °C, 5% CO2) for 1–5 h. Finally read the optical density at 560 nm and subtract background at 620 nm.
(§3) In this work, doxorubicin was used as a positive control drug for comparison with the synthesized compounds under the same experimental conditions.

[2] = tested on: A549 cell line; experiment: In vitro cytotoxic activity, MTT method, A549; details: for IC50: Homo sapiens, read-out: IC50 ± SD
Method: as §1, §2, §3

[3] = DPPH scavenging antioxidant activity; details: for antioxidant activity compared with Vitamin C: DPPH
Method: The antioxidant activity of ten compounds was determined using DPPH [32–34]. A solution 1: prepared by dissolving DPPH (0.002 g) in ethanol (50 mL etnanol). Solution 2: prepared by dissolving different weights 0.05, 0.01 g of each sample in 1 mL of DMSO then take 10 µL of each sample solution with 1 mL ethanol. Then mix 1 mL of solution 1 with 1 mL of solution 2 then vortex the resulting mixture in the dark for about 30 min. The absorbance of the mixture was measured by spectrophotometer at λmax = 517 nm against blank 1 mL absolute ethanol and compared to the ascorbic acid (Vitamin C).
Ten newly synthesized compounds were studied as in vitro antioxidants by measuring of their DPPH scavenging activity which is represented as a percentage % [32]^. Results are represented by mean ± SD of three replicates. […] The higher dose concentration of 0.05 μg/mL represents higher antioxidant activity. […] The high antioxidant activity is referred to the presence of C=O, NH2, and OH groups like ascorbic acid which can be easily oxidized and reduced and can be used as antioxidant drugs. (Fig. 8 and Table 9).

## CC(=O)C1C(c2ccc(N(C)C)cc2)c2c(C)[nH]c(=S)c(C#N)c2CC1(C)O (stereo not shown) [Compound 1, 7-Acetyl-4-cyano-1,6-dimethyl-6-hydroxy-8-(4-N,N-dimethylaminophenyl)-5,6,7,8-tetrahydroisoquinoline-3(2H)-thione]
[1]
  IC50: 1857 ± 8 nM
[1]; MCF7, 0.0487 µMol
  Toxicity %: 0.2745%
  Viability %: 99.73%
[1]; MCF7, 0.0975 µMol
  Toxicity %: 0.3246%
  Viability %: 99.68%
[1]; MCF7, 0.195 µMol
  Toxicity %: 0.4493%
  Viability %: 99.55%
[1]; MCF7, 0.391 µMol
  Viability %: 91.95%
[1]; MCF7, 0.781 µMol
  Toxicity %: 23.53%
  Viability %: 76.47%
[1]; MCF7, 1.562 µMol
  Toxicity %: 46.08%
  Viability %: 53.92%
[1]; MCF7, 3.125 µMol
  Toxicity %: 76.35%
  Viability %: 23.65%
[1]; MCF7, 6.25 µMol
  Toxicity %: 86.93%
  Viability %: 13.07%
[1]; MCF7, 12.5 µMol
  Toxicity %: 93.63%
  Viability %: 6.373%
[1]; MCF7, 25 µMol
  Toxicity %: 97.3%
  Viability %: 2.696%
[2]; A549, Conc. 0.0487 µMol
  Toxicity %: 1%
  Viability %: 99%
[2]; A549, Conc. 0.0975 µMol
  Viability %: 98.2%
[2]; A549, Conc. 0.195 µMol
  Toxicity %: 3%
  Viability %: 97%
[2]; A549, Conc. 0.391 µMol
  Toxicity %: 7.89%
  Viability %: 92.11%
[2]; A549, Conc. 0.781 µMol
  Toxicity %: 21.85%
  Viability %: 78.15%
[2]; A549, Conc. 1.562 µMol
  Toxicity %: 34.99%
  Viability %: 65.01%
[2]; A549, Conc. 3.125 µMol
  Toxicity %: 59.76%
  Viability %: 40.24%
[2]; A549, Conc. 6.25 µMol
  Toxicity %: 76.21%
  Viability %: 23.79%
[2]; A549, Conc. 12.5 µMol
  Toxicity %: 90.77%
  Viability %: 9.231%
[2]; A549, Conc. 25 µMol
  Toxicity %: 96.84%
  Viability %: 3.156%
[2]
  IC50: 2219 ± 2 nM
[3]; 0.01 µg/mL
  DPPH scavenging, inhibition (%): 61.01 ± 0.58%
[3]; 0.05 µg/mL
  DPPH scavenging, inhibition (%): 92.3 ± 0.44%
[3]
  antioxidant activity compared with Vitamin C: higher result than Vitamin C; also recorded: higher antioxidant activity than Vitamin C

## CSc1nc(C)c2c(c1C#N)CC(C)(O)C(C(C)=O)C2c1ccc(N(C)C)cc1 (stereo not shown) [Compound 3, 7-Acetyl-4-cyano-1,6-dimethyl-3-methylthio-6-hydroxy-8-(4-N,N-dimethyl-aminophenyl)-5,6,7,8-tetrahydroisoquinoline]
[1]
  IC50: 562 ± 7 nM
[1]; MCF7, 0.0487 µMol
  Toxicity %: 5.124%
  Viability %: 94.876%
[1]; MCF7, 0.0975 µMol
  Toxicity %: 7.124%
  Viability %: 92.876%
[1]; MCF7, 0.195 µMol
  Toxicity %: 8.333%
  Viability %: 91.67%
[1]; MCF7, 0.391 µMol
  Toxicity %: 38.81%
  Viability %: 61.19%
[1]; MCF7, 0.781 µMol
  Toxicity %: 66.75%
  Viability %: 33.25%
[1]; MCF7, 1.562 µMol
  Toxicity %: 82.8%
  Viability %: 17.2%
[1]; MCF7, 3.125 µMol
  Toxicity %: 91.22%
  Viability %: 8.783%
[1]; MCF7, 6.25 µMol
  Toxicity %: 95.14%
  Viability %: 4.861%
[1]; MCF7, 12.5 µMol
  Toxicity %: 97.43%
  Viability %: 2.574%
[1]; MCF7, 25 µMol
  Toxicity %: 97.06%
  Viability %: 2.941%
[2]; A549, Conc. 0.0487 µMol
  Toxicity %: 0.30%
  Viability %: 99.700%
[2]; A549, Conc. 0.0975 µMol
  Toxicity %: 0.50%
  Viability %: 99.50%
[2]; A549, Conc. 0.195 µMol
  Toxicity %: 0.789%
  Viability %: 99.21%
[2]; A549, Conc. 0.391 µMol
  Toxicity %: 5.089%
  Viability %: 94.91%
[2]; A549, Conc. 0.781 µMol
  Toxicity %: 23.59%
  Viability %: 76.41%
[2]; A549, Conc. 1.562 µMol
  Toxicity %: 38.19%
  Viability %: 61.81%
[2]; A549, Conc. 3.125 µMol
  Toxicity %: 53.18%
  Viability %: 46.82%
[2]; A549, Conc. 6.25 µMol
  Toxicity %: 70.73%
  Viability %: 29.27%
[2]; A549, Conc. 12.5 µMol
  Toxicity %: 89.43%
  Viability %: 10.57%
[2]; A549, Conc. 25 µMol
  Toxicity %: 96.45%
  Viability %: 3.55%
[2]
  IC50: 2469 ± 6 nM
[3]; 0.01 µg/mL
  DPPH scavenging, inhibition (%): 25.58 ± 2.20%
[3]; 0.05 µg/mL
  DPPH scavenging, inhibition (%): 81.39 ± 3.87%
[3]
  antioxidant activity compared with Vitamin C: higher result than Vitamin C; also recorded: higher antioxidant activity than Vitamin C
